{"source": "ChEMBL document CHEMBL5291721", "about": "“A preclinical secondary pharmacology resource illuminates target-adverse drug reaction associations of marketed drugs” (Nat Commun, 2023); note: assay procedure not described here", "key": {"[1]": {"target": "T1, Alpha-2B adrenergic receptor (Homo sapiens, UniProt P18089)", "T1 sequence (P18089 whole entry)": "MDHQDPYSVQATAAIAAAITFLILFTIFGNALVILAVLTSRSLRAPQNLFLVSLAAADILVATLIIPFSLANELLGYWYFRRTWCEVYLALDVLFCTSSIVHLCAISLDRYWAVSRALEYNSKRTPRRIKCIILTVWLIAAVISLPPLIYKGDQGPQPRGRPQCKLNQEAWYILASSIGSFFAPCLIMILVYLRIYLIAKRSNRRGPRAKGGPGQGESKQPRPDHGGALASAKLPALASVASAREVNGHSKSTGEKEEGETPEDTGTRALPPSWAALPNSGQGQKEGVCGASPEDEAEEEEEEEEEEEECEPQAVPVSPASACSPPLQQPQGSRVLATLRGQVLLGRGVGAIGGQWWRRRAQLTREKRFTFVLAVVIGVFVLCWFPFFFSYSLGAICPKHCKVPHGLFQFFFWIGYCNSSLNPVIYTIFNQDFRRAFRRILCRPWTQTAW"}, "[2]": {"target": "Histamine H3 receptor (Homo sapiens, UniProt Q9Y5N1)", "sequence (Q9Y5N1 whole entry)": "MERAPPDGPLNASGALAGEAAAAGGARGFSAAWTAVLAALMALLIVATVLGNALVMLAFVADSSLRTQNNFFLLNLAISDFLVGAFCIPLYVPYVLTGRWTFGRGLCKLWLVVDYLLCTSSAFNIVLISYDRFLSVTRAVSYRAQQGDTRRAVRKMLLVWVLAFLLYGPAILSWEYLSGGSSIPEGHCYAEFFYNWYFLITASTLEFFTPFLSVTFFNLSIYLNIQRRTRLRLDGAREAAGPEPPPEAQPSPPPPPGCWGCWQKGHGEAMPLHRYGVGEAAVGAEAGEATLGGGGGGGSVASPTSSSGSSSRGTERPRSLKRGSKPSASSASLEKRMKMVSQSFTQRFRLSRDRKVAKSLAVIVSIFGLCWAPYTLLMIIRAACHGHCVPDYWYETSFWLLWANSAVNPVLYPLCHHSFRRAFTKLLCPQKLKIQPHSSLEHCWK"}, "[3]": {"target": "T2, Alpha-1A adrenergic receptor (Homo sapiens, UniProt P35348)", "T2 sequence (P35348 whole entry)": "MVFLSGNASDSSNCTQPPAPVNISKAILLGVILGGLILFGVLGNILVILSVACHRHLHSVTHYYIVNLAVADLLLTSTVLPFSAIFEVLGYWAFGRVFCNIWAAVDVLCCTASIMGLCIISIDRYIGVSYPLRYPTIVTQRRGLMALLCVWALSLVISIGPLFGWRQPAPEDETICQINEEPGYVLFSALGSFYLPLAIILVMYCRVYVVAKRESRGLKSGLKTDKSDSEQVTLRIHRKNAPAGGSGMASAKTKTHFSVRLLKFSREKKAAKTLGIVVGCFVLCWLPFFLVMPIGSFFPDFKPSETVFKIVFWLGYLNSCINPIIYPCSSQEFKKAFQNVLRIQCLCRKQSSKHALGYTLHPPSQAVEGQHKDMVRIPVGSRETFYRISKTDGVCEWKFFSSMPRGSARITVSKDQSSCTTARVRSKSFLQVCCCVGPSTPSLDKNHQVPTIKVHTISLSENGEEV", "assay_type": "functional, cell-based"}, "[4]": {"target": "T3, Progesterone receptor (Homo sapiens, UniProt P06401)", "T3 sequence (P06401 whole entry)": "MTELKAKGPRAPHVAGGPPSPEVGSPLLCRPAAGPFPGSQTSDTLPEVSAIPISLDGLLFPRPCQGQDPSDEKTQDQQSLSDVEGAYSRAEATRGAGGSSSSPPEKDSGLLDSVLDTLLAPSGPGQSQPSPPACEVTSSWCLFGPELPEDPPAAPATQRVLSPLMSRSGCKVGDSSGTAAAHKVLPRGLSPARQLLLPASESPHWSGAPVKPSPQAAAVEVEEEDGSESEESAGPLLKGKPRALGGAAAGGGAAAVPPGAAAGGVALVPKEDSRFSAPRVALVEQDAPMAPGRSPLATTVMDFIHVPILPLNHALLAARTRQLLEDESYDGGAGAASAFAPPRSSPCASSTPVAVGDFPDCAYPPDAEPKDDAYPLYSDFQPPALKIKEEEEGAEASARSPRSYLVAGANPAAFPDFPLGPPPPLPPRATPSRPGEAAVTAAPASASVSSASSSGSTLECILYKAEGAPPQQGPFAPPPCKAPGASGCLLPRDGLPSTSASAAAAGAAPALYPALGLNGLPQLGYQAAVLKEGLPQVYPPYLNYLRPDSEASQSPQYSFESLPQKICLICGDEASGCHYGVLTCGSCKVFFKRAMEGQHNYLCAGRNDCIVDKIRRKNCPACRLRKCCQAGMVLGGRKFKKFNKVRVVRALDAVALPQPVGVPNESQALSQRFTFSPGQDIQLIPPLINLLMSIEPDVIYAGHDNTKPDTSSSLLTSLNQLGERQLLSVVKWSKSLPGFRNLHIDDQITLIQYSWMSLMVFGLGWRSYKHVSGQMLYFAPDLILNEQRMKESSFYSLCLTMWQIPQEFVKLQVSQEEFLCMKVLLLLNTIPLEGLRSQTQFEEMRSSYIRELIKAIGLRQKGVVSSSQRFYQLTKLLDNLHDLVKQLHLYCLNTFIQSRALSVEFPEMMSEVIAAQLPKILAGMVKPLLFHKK"}, "[5]": {"target": "Sodium-dependent dopamine transporter (Homo sapiens, UniProt Q01959)", "sequence (Q01959 whole entry)": "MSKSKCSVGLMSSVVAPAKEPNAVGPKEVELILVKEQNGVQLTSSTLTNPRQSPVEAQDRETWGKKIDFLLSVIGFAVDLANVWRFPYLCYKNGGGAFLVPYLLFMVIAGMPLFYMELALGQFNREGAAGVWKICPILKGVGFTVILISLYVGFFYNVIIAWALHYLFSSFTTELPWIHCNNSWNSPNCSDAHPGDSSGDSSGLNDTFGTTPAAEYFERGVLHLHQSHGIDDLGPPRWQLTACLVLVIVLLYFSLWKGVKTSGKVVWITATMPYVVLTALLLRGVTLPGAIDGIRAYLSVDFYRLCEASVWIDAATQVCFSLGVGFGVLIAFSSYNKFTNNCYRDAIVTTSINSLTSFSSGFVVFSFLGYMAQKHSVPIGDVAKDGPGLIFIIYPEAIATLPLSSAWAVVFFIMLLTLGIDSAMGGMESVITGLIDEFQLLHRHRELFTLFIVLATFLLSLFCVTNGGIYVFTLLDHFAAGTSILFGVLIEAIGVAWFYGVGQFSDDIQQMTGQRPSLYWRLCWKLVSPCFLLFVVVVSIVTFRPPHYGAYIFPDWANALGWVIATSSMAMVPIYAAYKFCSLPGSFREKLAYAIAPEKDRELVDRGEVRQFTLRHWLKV"}, "[6]": {"target": "T4, Muscarinic acetylcholine receptor M2 (Homo sapiens, UniProt P08172)", "T4 sequence (P08172 whole entry)": "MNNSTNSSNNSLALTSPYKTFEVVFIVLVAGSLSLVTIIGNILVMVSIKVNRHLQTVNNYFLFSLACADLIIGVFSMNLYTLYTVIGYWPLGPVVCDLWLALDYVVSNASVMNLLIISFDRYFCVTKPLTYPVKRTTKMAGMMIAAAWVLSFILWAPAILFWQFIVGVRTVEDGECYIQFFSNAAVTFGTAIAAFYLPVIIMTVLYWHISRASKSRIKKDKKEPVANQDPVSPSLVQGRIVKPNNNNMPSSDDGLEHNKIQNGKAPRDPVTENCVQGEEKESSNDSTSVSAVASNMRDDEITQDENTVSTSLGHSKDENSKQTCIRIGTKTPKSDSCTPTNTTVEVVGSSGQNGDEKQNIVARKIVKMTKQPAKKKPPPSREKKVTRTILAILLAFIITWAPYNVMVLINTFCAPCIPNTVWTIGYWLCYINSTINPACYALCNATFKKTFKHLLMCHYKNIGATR"}, "[7]": {"target": "T5, Estrogen receptor (Homo sapiens, UniProt P03372)", "T5 sequence (P03372 whole entry)": "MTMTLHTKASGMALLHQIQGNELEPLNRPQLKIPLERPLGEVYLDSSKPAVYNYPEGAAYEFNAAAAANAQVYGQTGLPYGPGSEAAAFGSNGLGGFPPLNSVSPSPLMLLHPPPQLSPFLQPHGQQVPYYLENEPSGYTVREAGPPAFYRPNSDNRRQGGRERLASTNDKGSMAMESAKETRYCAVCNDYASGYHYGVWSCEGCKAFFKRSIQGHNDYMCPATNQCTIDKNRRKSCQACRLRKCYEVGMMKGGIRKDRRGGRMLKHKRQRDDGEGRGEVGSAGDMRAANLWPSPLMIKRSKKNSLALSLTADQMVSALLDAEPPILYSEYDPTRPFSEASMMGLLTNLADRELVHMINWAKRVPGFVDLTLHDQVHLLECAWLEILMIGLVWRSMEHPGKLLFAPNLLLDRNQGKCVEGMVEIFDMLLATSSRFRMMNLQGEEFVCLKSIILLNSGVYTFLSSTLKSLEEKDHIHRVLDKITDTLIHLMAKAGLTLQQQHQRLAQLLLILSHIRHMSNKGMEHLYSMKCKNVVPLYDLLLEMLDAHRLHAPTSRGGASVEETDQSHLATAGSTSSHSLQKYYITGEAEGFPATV"}}}
{"compound": "HYDROXOCOBALAMIN", "values": [{"measurement": "AC50", "setting": "[1]", "value": "> 30", "unit": "µM"}]}
{"compound": "Nc1ccc(S(N)(=O)=O)cc1", "note": "[SULFANILAMIDE]", "values": [{"measurement": "AC50", "setting": "[2]", "value": "> 30", "unit": "µM"}, {"measurement": "AC50", "setting": "[3]", "value": "> 30", "unit": "µM"}, {"measurement": "AC50", "setting": "[4]", "value": "> 30", "unit": "µM"}, {"measurement": "AC50", "setting": "[5]", "value": "> 30", "unit": "µM"}, {"measurement": "AC50", "setting": "[6]", "value": "> 30", "unit": "µM"}]}
{"compound": "CN(C)c1ccc(C(=C2C=CC(=[N+](C)C)C=C2)c2ccc(N(C)C)cc2)cc1", "note": "[GENTIAN VIOLET]", "values": [{"measurement": "AC50", "setting": "[2]", "value": 4.71, "unit": "µM"}, {"measurement": "AC50", "setting": "[3]", "value": 0.845, "unit": "µM"}, {"measurement": "AC50", "setting": "[7]", "value": "> 30", "unit": "µM"}, {"measurement": "AC50", "setting": "[4]", "value": 1.67, "unit": "µM"}, {"measurement": "AC50", "setting": "[5]", "value": 3.4, "unit": "µM"}, {"measurement": "AC50", "setting": "[6]", "value": 0.478, "unit": "µM"}]}
